Consider 4 compounds from patent US6699901B1, “Dicarboxylato diammine platinum derivatives and compositions comprising them as anti-tumor agents” (priority 2000, dated 2004).

The test system of data set [1] is human hepatic cancer cells BEL-7402. The data set is described as follows: IC50 on human hepatic cancer cells BEL-7402. It is filed as cell-based.
Another data set relates to nude mice. The data set is described as follows: Acute toxicity dose limiting experiments (LD50). The method, then:
The LD50 of the pharmaceutical composition of the invention is tested as follows, for example: […]

A short description of a further data set: Solubility in water. The class given is physicochemical.
The nature of another data set: Stability in water. It is filed as physicochemical. As to conditions: after dissolved in water.
Data set [2] has as its system cells of adenocarcinoma of breast. In words: IC50 on human breast cancer cells. It is filed as cell-based.
A short description of data set [3]: Effectiveness on oral administration. It is filed as in vivo.
The next data set concerns human hepatic cancer H22. As to conditions: after two times of administration of the smallest dose based on LD50. The method, then:
The mice were divided into three groups, which were given large dose (LD50×⅕), middle dose (LD50× 1/10) and small dose (LD50× 1/20) respectively. […] Beijing's institute for drug control carried out human hepatic cancer H22 nude mice inoculation carcinostatic rate experiments. […] Every group was given 0.2 ml every time per day for seven consecutive days. The mice were put to death thirty days after inoculation.

A short description of data set [4]: Antitumor effects (test not specified).

With `N.N.O=C([O-])C1(C(=O)[O-])CCC1.[Pt+2]` [Carboplatin, carboplatin, reference compound], the results for the half-inhibitory concentration (IC50) in data set [1] and in data set [2] were 8.45 µg/mL and 9.3 µg/mL, respectively. This compound displayed an LD50 abdominal administration with nude mice (administered abdominally) of 130 mg/kg. This compound also showed a Solubility in water in the data set “Solubility in water” of 1.5 g/100 ml. The stability in water entry in the data set “Stability in water” is recorded as “lose effectiveness in one day”. Moreover, the “effectiveness on oral administration” value in data set [3] is given as “ineffective”.

`N.N.[Cl][Pt][Cl]` [Cisplatin, cis-dichlorodiaminoplatin]: the stability in water result in “Stability in water” was “lose effectiveness in one day”. The “effectiveness on oral administration” value in data set [3] was “ineffective”.

`O=P1(N(CCCl)CCCl)NCCCO1` (stereo not shown) [cyclophosphamide, reference compound]: in the data set with human hepatic cancer H22, the inhibition rate was 73.15% and the “state of the mice” value is listed as “most of the mice were near death”.

Compound “Double 1,1-Cyclopropane Dicarboxylic Acid Diaminoplatin Complex” came in with an LD50 in the data set with nude mice (injected) of 180 mg/kg. Further, the “solubility in water compared with bicycloplatin” value in the data set “Solubility in water” was “less soluble in water”. For the same compound, the “antitumor effects compared with bicycloplatin” value in data set [4] is recorded as “superior”.

The IC50 is the concentration at which inhibition is half-maximal. Higher therefore signals weaker potency. As usually defined, the LD50 is the dose expected to kill half of the subjects tested. Low values mean greater toxicity, high ones lower toxicity.
